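Grown in 96-well plates, cells were treated for 48 hours with each compound at five concentrations. Insufficient inhibition: endpoint recorded as highest concentration tested. GI50 = concentration required for 50% inhibition of growth. TGI: total growth inhibition.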
Key:
Test in all cases: inhibition of tumour cell growth, NCI panel, 48 h
A498 renal = system: A498 renal
A549 NSCLC = system: A549 NSCLC
ACHN renal = system: ACHN renal
BT-549 breast = system: BT-549 breast
CAKI-1 renal = system: CAKI-1 renal
CCRF-CEM leukemia = system: CCRF-CEM leukemia
COLO 205 colon = system: COLO 205 colon
HCC-2998 colon = system: HCC-2998 colon
HL-60(TB) leukemia = system: HL-60(TB) leukemia
HOP-92 NSCLC = system: HOP-92 NSCLC
HS 578T breast = system: HS 578T breast
IGROV1 ovarian = system: IGROV1 ovarian
K-562 leukemia = system: K-562 leukemia
MALME-3M melanoma = system: MALME-3M melanoma
MDA-MB-231 breast = system: MDA-MB-231 breast
MOLT-4 leukemia = system: MOLT-4 leukemia
NCI-H226 lung = system: NCI-H226 lung
NCI-H23 lung = system: NCI-H23 lung
NCI-H522 lung = system: NCI-H522 lung
NCI/ADR-RES ovarian = system: NCI/ADR-RES ovarian
OVCAR-3 ovarian = system: OVCAR-3 ovarian
OVCAR-5 ovarian = system: OVCAR-5 ovarian
OVCAR-8 ovarian = system: OVCAR-8 ovarian
PC-3 prostate = system: PC-3 prostate
RPMI-8226 leukemia = system: RPMI-8226 leukemia
RXF 393 renal = system: RXF 393 renal
SF-268 CNS = system: SF-268 CNS
SF-295 CNS = system: SF-295 CNS
SK-MEL-2 melanoma = system: SK-MEL-2 melanoma
SK-OV-3 ovarian = system: SK-OV-3 ovarian
SN12C renal = system: SN12C renal
SNB-19 CNS = system: SNB-19 CNS
SR leukemia = system: SR leukemia
SW-620 colon = system: SW-620 colon
T-47D breast = system: T-47D breast
TK-10 renal = system: TK-10 renal
UACC-257 melanoma = system: UACC-257 melanoma
UACC-62 melanoma = system: UACC-62 melanoma
UO-31 renal = system: UO-31 renal

Compound `CN1CCN(c2ccc3nc(-c4ccc(OCCCN5C(=O)c6cccc7cccc(c67)C5=O)cc4)[nH]c3c2)CC1` has a GI50 (A498 renal) of 24.1 µM, a TGI (A498 renal) of 50.4 µM and a GI50 (A549 NSCLC) of 16.3 µM. It also gave a TGI (A549 NSCLC) of 62.4 µM, a GI50 (ACHN renal) of 5.34 µM and a TGI (ACHN renal) of 11.2 µM. The GI50 (BT-549 breast) was 2.66 µM, the TGI (BT-549 breast) was 6.13 µM and the GI50 (CAKI-1 renal) was 18.8 µM. The TGI (CAKI-1 renal) was greater than 100 µM, the GI50 (CCRF-CEM leukemia) was 2.62 µM and the TGI (CCRF-CEM leukemia) was 7.48 µM. It also gave a GI50 (COLO 205 colon) of 4.53 µM, a TGI (COLO 205 colon) greater than 100 µM and a GI50 (HCC-2998 colon) of 20.6 µM. The TGI (HCC-2998 colon) was 52.6 µM, the GI50 (HL-60(TB) leukemia) was 3.13 µM and the TGI (HL-60(TB) leukemia) was 7.41 µM. For the same compound, the GI50 (HOP-92 NSCLC) was 1.66 µM, the TGI (HOP-92 NSCLC) was 3.29 µM and the GI50 (HS 578T breast) was 2.11 µM. The TGI (HS 578T breast) was 4.6 µM, the GI50 (IGROV1 ovarian) was 21.8 µM and the TGI (IGROV1 ovarian) was 66.1 µM. It also gave a GI50 (K-562 leukemia) of 0.889 µM, a TGI (K-562 leukemia) of 4.54 µM and a GI50 (MALME-3M melanoma) of 4.43 µM. The TGI (MALME-3M melanoma) was greater than 30.8 µM, the GI50 (MDA-MB-231 breast) was 1.41 µM and the TGI (MDA-MB-231 breast) was 2.76 µM. The GI50 (MOLT-4 leukemia) was 2.06 µM, the TGI (MOLT-4 leukemia) was 5.05 µM and the GI50 (NCI-H226 lung) was 19.8 µM. The TGI (NCI-H226 lung) was 51.2 µM, the GI50 (NCI-H23 lung) was 8.1 µM and the TGI (NCI-H23 lung) was 55.9 µM. The GI50 (NCI-H522 lung) was 24.9 µM, the TGI (NCI-H522 lung) was greater than 88.8 µM and the GI50 (NCI/ADR-RES ovarian) was 2.09 µM. The TGI (NCI/ADR-RES ovarian) was 4.7 µM, the GI50 (OVCAR-3 ovarian) was 27.1 µM and the TGI (OVCAR-3 ovarian) was 95.6 µM. It also gave a GI50 (OVCAR-5 ovarian) of 1.89 µM, a TGI (OVCAR-5 ovarian) of 3.38 µM and a GI50 (OVCAR-8 ovarian) of 2.38 µM. The TGI (OVCAR-8 ovarian) was 5.48 µM, the GI50 (PC-3 prostate) was 2.04 µM and the TGI (PC-3 prostate) was 4.95 µM. It also gave a GI50 (RPMI-8226 leukemia) of 2.58 µM, a TGI (RPMI-8226 leukemia) of 7.75 µM and a GI50 (RXF 393 renal) of 10 µM. The TGI (RXF 393 renal) was 41.7 µM, the GI50 (SF-268 CNS) was 26.3 µM and the TGI (SF-268 CNS) was 99.8 µM. It also gave a GI50 (SF-295 CNS) of 14.5 µM, a TGI (SF-295 CNS) of 89.2 µM and a GI50 (SK-MEL-2 melanoma) of 25.2 µM. The TGI (SK-MEL-2 melanoma) was 62.4 µM, the GI50 (SK-OV-3 ovarian) was 10.8 µM and the TGI (SK-OV-3 ovarian) was 37.5 µM. It also gave a GI50 (SN12C renal) of 15.6 µM, a TGI (SN12C renal) of 34.8 µM and a GI50 (SNB-19 CNS) of 31 µM. It also gave a TGI (SNB-19 CNS) of 69.6 µM, a GI50 (SR leukemia) of 2.69 µM and a TGI (SR leukemia) of 5.94 µM. The GI50 (SW-620 colon) was 1.83 µM, the TGI (SW-620 colon) was 3.44 µM and the GI50 (T-47D breast) was 4.8 µM. The TGI (T-47D breast) was 34.3 µM, the GI50 (TK-10 renal) was 8.54 µM and the TGI (TK-10 renal) was greater than 71.2 µM. It also gave a GI50 (UACC-257 melanoma) of 24.8 µM, a TGI (UACC-257 melanoma) of 51.8 µM and a GI50 (UACC-62 melanoma) of 5.18 µM. The TGI (UACC-62 melanoma) was 10.1 µM, the GI50 (UO-31 renal) was 14.5 µM and the TGI (UO-31 renal) was 43.1 µM.

Source: PubChem BioAssay (NCI)
